Assay results as given in patent US9504676B2, “Molecules inhibiting a metabolic pathway involving the Syk protein tyrosine kinase and method for identifying said molecules” (CENTRE NATIONAL DE LA RECHERCHE SCIENTIFIQUE, priority 2008, dated 2016).

How the values were obtained:
[1] = biological target: T1, murine Syk tyrosine kinase protein (GST:Syk 6-242) (Mus musculus, UniProt P48025); test: ADA method: displacement of the binding of scFv G4G11 with Syk (ELISA); details: small molecules at 10 μM, scFv G4G11 100 nM; read-out: In vit. inhib.: mean inhibition % of the binding of scFv G4G11 with Syk in the ADA method
T1 construct: made in house
Excerpt: The term “percentage of inhibition” of the binding of an antibody or antibody fragment with Syk protein, particularly refers to the ratio […], where A consists of the intensity of a signal proportional to the quantity of an antibody or antibody fragment bound with Syk protein in the absence of a molecule according to the invention and B the intensity of the same signal in the presence of a molecule according to the invention under the same conditions. […] This test may be performed for example according to the protocol described in example 3-2) hereinafter.
The inventors developed the ADA (Antigen Displacement Assay) method to identify small molecules capable of displacing the association with scFv G4G11 with Syk. […] To understand the mode of action of C-13, the inventors firstly identified the binding site of G4G11 using the SPOT method^16. An epitope located on the N-terminal SH2 domain of Syk, comprising amino acids 65-74 and 100% preserved in mouse, rat and human sequences, was identified.
The ADA method was then applied to each of these […] molecules to measure the ability thereof to inhibit the binding of scFv G4G11 with Syk.
(§1) • 1) Chemical products and antibodies. A chemical bank of 3000 molecules (a varied subset) was acquired from ChemBridge, Inc. (San Diego, Calif.). Stocks of solutions of small molecules were prepared at a rate of 10 mM in DMSO (dimethylsulphoxide), except for C-13 (methyl 2-{5-[(3-benzyl-4-oxo-2-thioxo-1,3-thiazolidin-5-ylidene)methyl]-2-furyl}benzoate, ChemBridge ID No. 6197026) prepared in DMF (dimethylformamide). Unless specified otherwise, all the reagents were supplied by Sigma. Dinitrophenyl (DNP) hapten was acquired from Calbiochem. Sepharose GammaBind G and all the secondary antibodies were supplied by GE Health Amersham Biosciences. The anti-Syk, anti-Lyn, anti-Btk, anti-PLC-γ1, anti-PLC-γ2, anti-LAT, anti-SLP-76, anti-p38, anti-JNK, anti-Vav, anti-Akt1 and 9E10 antibodies conjugated with HRP were acquired from Santa Cruz Biotechnology. The anti-phospho-p44/42 MAP Kinase, anti-p44/42 MAP Kinase, anti-phospho-p38, anti-phospho-JNK, anti-phospho-Akt1 antibodies were acquired from Cell Signaling. The anti-phospho-LAT and anti-phospho-PLC-γ1 antibodies were supplied by Biosource and the anti-phospho-SLP-76 antibodies by BD Pharmingen. The 4G10 anti-phosphotyrosine monoclonal antibody was acquired from Upstate Biotechnology. • 2) ADA method: ELISA type high-speed molecule screening test, based on antibody displacement (WO 2005106481). The recombinant fusion protein GST:Syk 6-242^8 comprising the residues 6 to 242 of murine Syk tyrosine kinase protein illustrated in FIG. 8B (SEQ ID No. 4) was immobilised on an ELISA plate at a final concentration of 10 μg ml^−1. For the screening of the chemical molecule bank, the small molecules, diluted in PBS at a final concentration of 10 μM were added to the wells for one hour at ambient temperature, before adding the fragment scFv G4G11 at a final concentration of 100 nM for an additional hour. The binding of G4G11 with Syk was assessed by adding the 9E10 monoclonal antibody conjugated with HRP detecting the amino acid sequence EQKLISEEDLN of human c-myc protein located at the C-terminal end of the scFv fragment. To generate Syk mutants, targeted mutagenesis was used on GST:Syk 6-242 protein and the binding of G4G11 with the mutants was assessed in the presence of 5 μM of C-13. • 3) Cells, culture conditions and functional tests. Anti-DNP 2682-I mouse monoclonal antibody was used as the culture supernatant of hybridomas containing 1 μg/ml of IgE. Femoral bone marrow cells were sampled and cultured in Opti-MEM medium (Gibco) supplemented with 10% foetal calf serum and 4% X63 transfectant supernatant secreting murine IL-3. RBL-2H3 (ATCC) leukaemic rat basophil cells were maintained in a single-layer culture in RPMI 1640 medium supplemented with 10% foetal calf serum (Gibco). […]

RBL-2H3 cells = test: cells; format: cell-based, rat; details: Rattus norvegicus; RBL-2H3 cells; read-out: Degran. IC50: concentration inhibiting mast cell degranulation by 50%
Experimental: These 87 molecules were also tested in vitro to assess the ability thereof to inhibit RBL-2H3 cell degranulation (see table 1).
as §1, with “(Gibco). Measurements of β-hexosaminidase released by the RBL-2H3 cells were performed as described previously^7, except that, after 12-16 hours of incubation with anti-DNP IgE (0.5 μg/ml), the cells were incubated for 90 min at 37° C. in RPMI medium supplemented with the specified concentrations of C-13 or DMF (0.25%). The cells were stimulated for 45 min with DNP-BSA (50 ng ml^−1) or ionomycin (1.5 μM). The BMMC cells were incubated for one hour at 37° C. with anti-DNP IgE (100 ng/ml). They were then incubated with C-13 (3 μM) or DMF (0.3%) for 3 hours at 37° C., and stimulated with varied concentrations of DNP-BSA. The level of β-hexosaminidase released was measured 10 min later and the TNF-α titration was performed by means of a cytotoxicity test on L929 cells as described previously^10, 3 hours after stimulation. The results illustrated in FIG. 3 are representative of three independent experiments. • 4) Immunoprecipitations, in vitro kinase assays and immunodetection.” for “(Gibco).”

Row | SMILES | inhibition at 10 µM [1] | IC50 (RBL-2H3 cells)
1 | COc1ccccc1C1C(C(=O)c2cc(C)ccc2C)=C(O)C(=O)N1CCN1CCOCC1 (stereo not drawn) [Molecule 7, 4-(2,5-dimethylbenzoyl)-3-hydroxy-5-(2-methoxyphenyl)-1-[2-(4-morpholinyl)ethyl]-1,5-dihydro-2H-pyrrol-2-one] | 72% | > 10 µg/mL
2 | CCOC(=O)c1[nH]c(N2C(=O)C(O)=C(C(=O)c3ccccc3)C2c2ccc(OC)cc2)nc1C (stereo not drawn) [Molecule 12] | 69% | > 10 µg/mL
3 | COc1ccc(C(=O)C2=C(O)C(=O)N(CCN3CCOCC3)C2c2cccnc2)c(C)c1 (stereo not drawn) [Molecule 14, 3-hydroxy-4-(4-methoxy-2-methylbenzoyl)-1-[2-(4-morpholinyl)ethyl]-5-(3-pyridinyl)-1,5-dihydro-2H-pyrrol-2-one] | 67.5% | > 10 µg/mL
4 | COC(=O)c1sc(N2C(=O)C(O)=C(C(=O)c3ccccc3)C2c2ccc(C)cc2)nc1C (stereo not drawn) [Molecule 16, methyl 2-[3-benzoyl-4-hydroxy-2-(4-methylphenyl)-5-oxo-2,5-dihydro-1H-pyrrol-1-yl]-4-methyl-1,3-thiazole-5-carboxylate] | 67% | > 10 µg/mL
5 | CC(C)c1ccc(C2C(C(=O)c3ccc(F)cc3)=C(O)C(=O)N2CCCN2CCOCC2)cc1 (stereo not drawn) [Molecule 19, 4-(4-fluorobenzoyl)-3-hydroxy-5-(4-isopropylphenyl)-1-[3-(4-morpholinyl)propyl]-1,5-dihydro-2H-pyrrol-2-one] | 60% | > 10 µg/mL
6 | Cc1cccc(OCC(=O)Nc2cccc3c(NC(=O)COc4cccc(C)c4)cccc23)c1 [Molecule 20] | 60% | > 10 µg/mL
7 | COc1cc(NS(=O)(=O)c2ccc(NC(C)=O)cc2)c(OC)cc1NC(=O)c1ccccc1 [Molecule 21, N-[4-({[4-(acetylamino)phenyl]sulphonyl}amino)-2,5-dimethoxyphenyl] benzamide] | 58% | > 10 µg/mL
8 | Cc1ccc(-n2c3c(cc(C(=O)NC4CC(C)(C)NC(C)(C)C4)c2=O)C(=O)CC(C)(C)C3)cc1 [Molecule 22, 7,7-dimethyl-1-(4-methylphenyl)-2,5-dioxo-N-(2,2,6,6-tetramethyl-4-piperidinyl)-1,2,5,6,7,8-hexahydro-3-quinoline carboxamide] | 57.5% | > 10 µg/mL
9 | O=C(O)CCC(=O)N(Cc1ccccc1)Cc1cn(-c2ccccc2)nc1-c1cccs1 [Molecule 23, 4-(benzyl{[1-phenyl-3-(2-thienyl)-1H-pyrazol-4-yl]methyl}amino)-4-oxo butanoic acid] | 57% | > 10 µg/mL
10 | COc1cc(C2C(C(=O)c3ccc(Cl)cc3)=C(O)C(=O)N2CCCN2CCOCC2)cc(OC)c1OC (stereo not drawn) [Molecule 25, 4-(4-chlorobenzoyl)-3-hydroxy-1-[3-(4-morpholinyl)propyl]-5-(3,4,5-trimethoxyphenyl)-1,5-dihydro-2H-pyrrol-2-one] | 56.5% | > 10 µg/mL

More lines, now with the values ahead:

Row | inhibition at 10 µM [1] | IC50 (RBL-2H3 cells) | SMILES
11 | 77.5% | > 10 µg/mL | COc1ccc(OC)c(C2C(C(=O)c3ccccc3)=C(O)C(=O)N2CCCn2ccnc2)c1 (stereo not drawn) [Molecule 5, 4-benzoyl-5-(2,5-dimethoxyphenyl)-3-hydroxy-1-[3-(1H-imidazol-1-yl)propyl]-1,5-dihydro-2H-pyrrol-2-one]
12 | 71% | > 10 µg/mL | COc1cc(C2C(C(=O)c3cccs3)=C(O)C(=O)N2CCc2ccccc2)cc(Br)c1O (stereo not drawn) [Molecule 8, 5-(3-bromo-4-hydroxy-5-methoxyphenyl)-3-hydroxy-1-(2-phenylethyl)-4-(2-thienylcarbonyl)-1,5-dihydro-2H-pyrrol-2-one]
13 | 71% | > 10 µg/mL | O=C(C1=C(O)C(=O)N(Cc2cccnc2)C1c1cccc(Oc2ccccc2)c1)c1ccc(F)cc1 (stereo not drawn) [Molecule 9, 4-(4-fluorobenzoyl)-3-hydroxy-5-(3-phenoxyphenyl)-1-(3-pyridinylmethyl)-1,5-dihydro-2H-pyrrol-2-one]
14 | 70.5% | > 10 µg/mL | COc1ccc(OC)c(C2C(C(=O)c3ccc(C)cc3)=C(O)C(=O)N2Cc2cccnc2)c1 (stereo not drawn) [Molecule 11, 5-(2,5-dimethoxyphenyl)-3-hydroxy-4-(4-methylbenzoyl)-1-(3-pyridinylmethyl)-1,5-dihydro-2H-pyrrol-2-one]
15 | 57% | > 10 µg/mL | COc1cccc(C2C(C(=O)c3ccc(F)cc3)=C(O)C(=O)N2CCCN2CCOCC2)c1 (stereo not drawn) [Molecule 24, 4-(4-fluorobenzoyl)-3-hydroxy-5-(3-methoxyphenyl)-1-[3-(4-morpholinyl)propyl]-1,5-dihydro-2H-pyrrol-2-one]
